{"source": "patent US20150323548A1", "about": "“METHODS OF MONITORING THE MODULATION OF THE KINASE ACTIVITY OF FIBROBLAST GROWTH FACTOR RECEPTOR AND USES OF SAID METHODS” (Novartis AG, priority 2008, published 2015)", "key": {"[1]": {"system": "FRS2 tyrosine phosphorylation (read-out for FGFR activity)", "assay": "Ex vivo FRS2 tyrosine phosphorylation in RT112 tumor xenografts in rats (Western blot)", "parameters": "species or system rat", "settings": "single oral 10, 25 or 50 mg/kg; tumors dissected 3 h post-treatment", "procedure": "FIG. 12 is a photograph showing the ex vivo analysis of RT112 tumor xenografts. Tumors were dissected 3 h after compound administration. Tumor tissue was lysed and FRS2 tyrosine phosphorylation levels were analysed by western blot using an antibody from Cell Signaling (#3864) that detects FRS2 when phosphorylated on Tyr196. As a loading control, membrane was probed with an antibody from Sigma (#T4026) that detects b-tubulin.\nCompound Formulation and Animal Treatment. […] The application volumes were 5 ml/kg.\nEx vivo analysis of RT112 tumor xenografts: RT112 bladder cancer cells express high levels of FGFR3, the activity of which can be monitored in these cells by measuring changes in FRS2 tyrosine phosphorylation, a substrate of the FGFRs. The tumor material was pulverized using a swing mill (RETSCH, either MM2 or MM200). Aliquots of tumor powder (50 mg) were lysed in ice-chilled lysis buffer containing 50 mM Tris pH 7.5, 150 mM NaCl, 1 mM EGTA, 5 mM EDTA, 1% Triton, 2 mM NaVanadate, 1 mM PMSF and protease inhibitors cocktail Roche #11873580001). Lysates were clarified by centrifugation at 12000×g for 15 min and protein concentration was determined using the DC protein assay reagents (Bio Rad #500-0116) and a BSA standard. Total cell lysates were subjected to SDS-PAGE and proteins blotted onto PVDF membranes. […]"}, "[2]": {"system": "FGF23", "assay": "FGF23 ELISA in serum of Rowett rats bearing RT112 xenografts", "settings": "single oral 10, 25, 50 mg/kg; 24 hours post dosing; p<0.01", "description": "FGF23 levels were monitored using the FGF23 ELISA kit from Kainos, catalogue number CY-4000, and are expressed in pg/mL. Data are presented as means of n=4, ±SD. Data were compared by one-way Anova post-hoc Dunnett's versus vehicle.\nAnimals. Experiments were performed in female Rowett rats Hsd:RH-Foxlrnu. These athymic Nude-Rats were obtained from Harlan (The Netherlands)\nCompound Formulation and Animal Treatment. […] Vehicle consisted of acetic acid-acetate buffer (pH 4.6)/PEG300 (2:1 v/v). The application volumes were 5 ml/kg.\nBlood and tissue sampling for ex vivo analysis. Blood samples were drawn sublingually at 3 h, 7 h and 24 h post-compound administration. Plasma and as serum were prepared from each blood sample. At the same time points, tumors were dissected and snap frozen in liquid nitrogen."}, "[3]": {"assay": "clinical", "settings": "human, in vivo, po", "procedure": "(§1) Methods: Patients were treated orally with 200, 300, 400 or 500 mg/day on a once daily continuous dose schedule. […] Plasma samples from 43 patients were collected. […] Plasma FGF23 was evaluated by ELISA"}, "[4]": {"assay": "Phase I clinical trial in metastatic renal cell carcinoma patients: PK, toxicity, efficacy"}, "[5]": {"system": "FGF23", "assay": "FGF23 ELISA in plasma of mRCC patients", "type": "in vivo, human"}, "[6]": {"system": "phosphorylated and activated FGFR", "assay": "Immunohistochemistry of pFGFR in melanoma tumor biopsy", "settings": "melanoma patient, 400 mg, cycle 1 Day 15"}, "[7]": {"system": "FGF23", "assay": "FGF23 ELISA in serum of wistar rats", "type": "in vivo, rat", "settings": "single oral 50 mg/kg; 24 h post administration; p<0.01", "procedure": "Data are presented as means of n=6, ±SD.\nAnimals. Experiments were performed in female wistar rats furth WF/Ico\nThe application volumes were 5 ml/kg.\nBlood samples were drawn sublingually at 24 h post-compound administration. Plasma, as well as serum samples were prepared from each blood sample."}, "[8]": {"system": "FGF23", "settings": "for mean plasma FGF23 increase over baseline: melanoma patients; for Increase of FGF23 levels over basal levels (up to): 400 mg daily", "procedure": "Blood sampling was performed at the indicated day and cycle. FGF23 levels were measured in plasma. The values given for C1D1 are the baseline values.\nas §1"}}, "note": "Read-outs that look alike come from different tables or passages of the source.", "data": [{"molecule": "CN1CCN(c2ccc3nc(-c4c(N)c5c(F)cccc5[nH]c4=O)[nH]c3c2)CC1", "note": "[TKI258]", "values": [{"measurement": "FRS2 tyrosine phosphorylation in RT112 tumors", "setting": "[1]", "value": "inhibited FRS2 tyrosine phosphorylation in a dose-dependent manner"}, {"measurement": "serum levels of FGF23 vs vehicle-treated group", "setting": "[2]", "value": "dose-dependent increased in serum levels of FGF23"}, {"measurement": "AUC(0-t)", "setting": "[3]; 400 mg", "value": "~3000", "unit": "ng·h/mL"}, {"measurement": "AUC(0-t)", "setting": "[3]; 500 mg", "value": "~4100", "unit": "ng·h/mL"}, {"measurement": "Preliminary evidence of efficacy (other responses)", "setting": "[4]; mRCC patients", "value": "4 stable disease and 1 dramatic shrinkage/necrosis of some target lesions"}, {"measurement": "minor response (change at C4)", "setting": "[4]; one mRCC patient, C4", "value": "−17", "unit": "%"}, {"measurement": "peak of FGF23 level (day of cycle 1)", "setting": "[5]; mRCC patients having increased FGF23", "value": "~15", "unit": "days"}, {"measurement": "increase of FGF23 level compared to the baseline level", "setting": "[5]; mRCC patients having increased FGF23, 500 mg/day", "value": "1.35-1.75"}, {"measurement": "plasma FGF23 levels", "setting": "[5]; pts from the first 500 mg/day dosing cohort", "value": "Induction of plasma FGF23 levels"}, {"measurement": "pFGFR in tumor biopsy (immunohistochemistry)", "setting": "[6]", "value": "significant pFGFR inhibition"}, {"measurement": "serum levels of FGF23 vs vehicle-treated group", "setting": "[7]", "value": "statistically significant increased in serum levels of FGF23"}, {"measurement": "FGF23", "setting": "[8]; Patient A, 200 mg daily oral, C1D15", "value": 39.8, "unit": "pg/mL"}, {"measurement": "FGF23", "setting": "[8]; Patient A, 200 mg daily oral, C1D26", "value": 24.4, "unit": "pg/mL"}, {"measurement": "FGF23", "setting": "[8]; Patient A, 200 mg daily oral, C3D26", "value": 31.8, "unit": "pg/mL"}, {"measurement": "FGF23", "setting": "[8]; Patient A, 200 mg daily oral, C6D26", "value": 21.1, "unit": "pg/mL"}, {"measurement": "FGF23", "setting": "[8]; Patient A, 200 mg daily oral, C9D26", "value": 39.6, "unit": "pg/mL"}, {"measurement": "FGF23", "setting": "[8]; Patient B, 400 mg daily oral, C1D15", "value": 94.1, "unit": "pg/mL"}, {"measurement": "FGF23", "setting": "[8]; Patient B, 400 mg daily oral, C3D26", "value": 88.5, "unit": "pg/mL"}, {"measurement": "FGF23", "setting": "[8]; Patient B, 400 mg daily oral, C4D26", "value": 141.5, "unit": "pg/mL"}, {"measurement": "FGF23", "setting": "[8]; Patient C, 400 mg daily oral, C1D15", "value": 86.5, "unit": "pg/mL"}, {"measurement": "peak of FGF23 (day in first cycle of treatment)", "setting": "[8]; melanoma and metastatic renal cell carcinoma patients, 400 mg or 500 mg, preliminary observation", "value": "~15", "unit": "days"}, {"measurement": "mean plasma FGF23 increase over baseline", "setting": "[8]; day 15 of the first treatment cycle", "value": 63, "unit": "%"}, {"measurement": "mean plasma FGF23 increase over baseline", "setting": "[8]; end of the first treatment cycle", "value": 68, "unit": "%"}, {"measurement": "plasma FGF23 increase over baseline", "setting": "[8]; one patient, 400 mg, Cycle 1 Day 15", "value": 98, "unit": "%"}, {"measurement": "plasma FGF23 level", "setting": "[8]; one patient, 400 mg, Cycle 1 Day 15 (baseline level 40 pg/ml)", "value": "about 80 pg/ml"}, {"measurement": "Increase of FGF23 levels over basal levels (up to)", "setting": "[8]; patient B", "value": "up to 1.96 fold"}, {"measurement": "Increase of FGF23 levels over basal levels (up to)", "setting": "[8]; patient B, listed as TK1258", "value": "≤ 1.96", "unit": "fold"}, {"measurement": "Increase of FGF23 levels over basal levels (up to)", "setting": "[8]; patient C", "value": "≤ 2.1", "unit": "fold"}]}]}
